Several values for one entry are separate records, joined by “and”; a condition that tells them apart may be missing. Equal entries are not always repeated.
Key:
[1] = test system: HCV; conditions: monotherapy, cited from earlier work
[2] = test system: BFU-E (human bone marrow cells); test: Human bone marrow toxicity BFU-E clonogenic assay; conditions: read-out: IC50 BFU-E, colony formation after 14 to 18 days
Experimental: (§1) The culture assays for CFU-GM and BFU-E were performed using a bilayer soft agar or methylcellulose method. Drugs were diluted in tissue culture medium and filtered. After 14 to 18 days at 37° C. in a humidified atmosphere of 5% CO2 in air, colonies of greater than 50 cells were counted using an inverted microscope.

[3] = test system: CFU-GM (human bone marrow cells); test: Human bone marrow toxicity CFU-GM clonogenic assay; conditions: read-out: IC50 CFU-GM, colony formation after 14 to 18 days
Experimental: as §1

[4] = Bioavailability assay in Cynomolgus monkeys; type: in vivo, cynomolgus monkey; conditions: for Norm AUC: individual monkeys, AUC normalised to dose in mg; for Mean Norm AUC: mean of 3 monkeys
Experimental: Within 1 week prior to the study initiation, the cynomolgus monkey was surgically implanted with a chronic venous catheter and subcutaneous venous access port (VAP) to facilitate blood collection and underwent a physical examination including hematology and serum chemistry evaluations and the body weight was recorded. […] Each dosing syringe was weighed before dosing to gravimetrically determine the quantity of formulation administered. Urine samples were collected via pan catch at the designated intervals (approximately 18-0 hours pre-dose, 0-4, 4-8 and 8-12 hours post-dosage) and processed.

What does the source list for `NC(=O)c1ncn([C@@H]2O[C@H](CO)[C@@H](O)[C@H]2O)n1` [ribavirin, 1-β-D-ribofuranosyl-1-1,2,4-triazole-3-carboxamide]?
effect on serum levels of HCV-RNA ([1]; HCV patients): does not lower serum levels of HCV-RNA; patients in whom serum amino transferase levels are reduced to normal [1]: 40%

Which IC50 [2] does the source give for `C[C@@]1(O)[C@H](O)[C@@H](CO)O[C@H]1n1cnc2c(N)ncnc21` [β-D-2′-CH3-riboA, 2′-C-methylriboadenine] here?
Its IC50 is > 100 µM.

And the IC50 [3]?
The IC50 was > 100 µM.

What does the source list for `C[C@@]1(O)[C@H](O)[C@@H](CO)O[C@H]1n1cnc2c(=O)[nH]c(N)nc21` [β-D-2′-CH3-riboG]?
CL ([4]; IV 10 mg/kg): 1.28 ± 0.48 L/h/kg; Cmax ([4]; IV 10 mg/kg): 6945.6 ± 1886.0 ng/mL; T1/2 ([4]; IV 10 mg/kg): 7.9 ± 5.4 h; Tmax ([4]; IV 10 mg/kg): 0.25 ± 0.00 h; Vss ([4]; IV 10 mg/kg): 2.09 ± 0.54 L/kg; AUC ([4]; IV 10 mg/kg, mean ± spread): 8758.0 ± 4212.9 ng·h/mL; AUC ([4]; IV bolus 10 mg/kg, individual monkeys 1-3, 10 mg/kg): 6079 ng·h/mL and 13614 ng·h/mL and 6581 ng·h/mL; Norm AUC ([4]; IV): 293.4 ng·h/mL/mg and 293.2 ng·h/mL/mg and 268.3 ng·h/mL/mg; Mean Norm AUC ([4]; IV): 284.9 ng·h/mL/mg; Cmax ([4]; PO 10 mg/kg): 217.7 ± 132.1 ng/mL; T1/2 ([4]; PO 10 mg/kg): 10.3 ± 4.1 h; Tmax ([4]; PO 10 mg/kg): 2.00 ± 1.00 h; AUC ([4]; PO 10 mg/kg, mean ± spread): 1166.0 ± 589.6 ng·h/mL; AUC ([4]; PO gavage 10 mg/kg, individual monkeys 1-3, 10 mg/kg): 758 ng·h/mL and 898 ng·h/mL and 1842 ng·h/mL; Norm AUC ([4]; PO): 26.1 ng·h/mL/mg and 29.0 ng·h/mL/mg and 61.3 ng·h/mL/mg; Mean Norm AUC ([4]; PO): 38.8 ng·h/mL/mg; F (oral bioavailability) ([4]; Table 2, PO vs IV mean norm AUC): 13.6%; F ([4]; Table 3, 10 mg/kg PO vs IV): 13.8%; IC50 [2]: > 100 µM; IC50 [3]: > 10 µM
